Molecules are shown by their SMILES. Where two headings read alike, the source gives them in different places.

A word on the IC50: it is the concentration that inhibits the measured activity by half.

In assay [1] the test system is differentiated L6 cells.
Procedure: (§1) Labeling medium to assay oxidation of fatty acids was composed of glucose-deficient DMEM containing 3.7 g/l NaHCO3, 25 mM HEPES-NaOH, 0.5% fatty acid-free bovine serum albumin (BSA), 0.1% ethanol, 0.5% DMSO (or test compounds dissolved in DMSO), 5 mM D-glucose, and 16 μM unlabeled palmitate plus 0.25 μM [U-^14C]palmitate (approx. 800 mCi/mmol). After the addition of labeling medium, the cell culture plates were sealed air tight with self adhesive Super Sealing Film (Life Systems Design, #02-2796-3001). Before sealing, twelve 1 cm^2 squares of filter paper (Schleicher & Schuell, #GB004) pretreated with 50 μl of highly basic tissue solubilizer solution NCSII (Amersham Pharmacia, #NNCS-502) were attached to the lower side of the sealing film. Upon sealing of the tissue culture plates, the filters were positioned in the center above each well, and served to capture the evolving ^14CO2 that was produced by the cells in each individual well. After an incubation between 3 to 8 hours at 37° C., the filters were removed from the sealing film and the captured ^14CO2 was quantitated by liquid scintillation counting with 2 ml of scintillation cocktail BCS-NA (Amersham Pharmacia, #NBCS204) in a Tri-Carb liquid scintillation counter (Canberra Packard).
(§2) Cultivation of the differentiating rat muscle cell line L6 for fatty acid oxidation assays was performed as follows. For routine passaging, L6 cells (ATCC) were grown in T75 flasks in 15 ml of MEM Alpha medium (Gibco BRL Life Technologies, #22571-038), containing 10% heat inactivated FBS and 1% antibiotic/antimycotic solution (Gibco BRL Life Technologies, #15240-062). Incubation was done at 37° C. in a humid atmosphere containing 5% CO2. The cells were passaged twice per week by trypsinization.
(§3) For fatty acid oxidation assays, each well of a 12-well tissue culture plate was seeded with 2 to 5×10^4 cells in 1 ml of MEM Alpha, 10% FBS, 1% antibiotic/antimycotic solution. After 3 days, medium was exchanged by 1 ml of the same, fresh medium. After 5 days, medium was exchanged again, this time by 1 ml of medium containing 2% FBS, 1% antibiotic/antimycotic solution. After 7 days, the cells were fully differentiated and formed large multinucleated myotubes. At this stage, the medium was replaced by 1 ml of glucose-deficient DMEM supplemented with 3.7 g/l NaHCO3 and 25 mM HEPES-NaOH followed by a starvation period of 2 to 6 hours at 37° C. […] The compounds were tested at three different concentrations (2, 0.2 and 0.02 μM) on differentiated L6 cells.
Assay [2] concerns the target T1, human ACCβ enzyme (Homo sapiens, UniProt O00763).
T1 construct: The cloning of the full length human muscle-type ACCβ cDNA and expression in HEK293 cells; made in house; host or cells: HEK293 cells (ATCC CRL-1573), plasmid pRF33D
Kind of assay: Human ACCβ enzyme activity / inhibition assay (radiometric). It counts as biochemical. As to conditions: for IC50: purified recombinant human ACCβ, saturating substrate concentrations, read-out: IC50 against purified ACCβ enzyme; for Effect on K0.5 of K-citrate / Effect on Vmax of the ACC enzyme reaction: titration of compound at 0.5, 1 and 2 times IC50. As to the method:
The cloning of the full length human muscle-type ACCβ cDNA and expression in HEK293 cells (ATCC, #CRL-1573) was performed as follows. The ACCβ cDNA was amplified by the polymerase chain reaction (PCR) and was cloned using standard recombinant DNA techniques. The PCR reaction was performed with the Expand Long Template PCR System (Roche Molecular Biochemicals, #1 681 8340) and 0.5 ng of cDNA from human skeletal muscle as template. The primers used for PCR amplification were designed on the basis of the published sequence of the human ACCβ cDNA isolated from a human liver cDNA library (Abul-Elheiga et al. J. Biol Chem. 272, 10669-10677, 1997). The sequence of the forward primer ACCB1 was 5′-[…]-3′; it includes a NheI restriction cleavage site for subcloning and a Kozak translation initiation consensus sequence preceding the ATG start codon. The sequence of the reverse primer ACCB8 was 5′-[…]-3′; it includes a stop codon and a XhoI restriction cleavage site for subcloning. The amplified DNA fragment of approximately 7.4 kb was cloned into a mammalian expression vector. The resulting plasmid isolates, pRF33A, B, C, D, and E were individually transfected in human embryonic kidney 293 cells (HEK293) using a standard lipid transfection method. Cell extracts of transfected cells were prepared in a lysis buffer containing 0.4 mg/ml digitonin and enzyme activity was determined using a radiometric ACC activity assay as described below. Plasmid pRF33D gave the highest activity and was chosen for large scale transfections of HEK293 cells and enzyme purification.
Since ACC enzyme activities in crude cell lysates were very low, enrichment of ACCβ enzyme expressed in HEK293 cells was achieved by a single anion exchange chromatography step. Cell lysates were run over a 5 ml Econo Pac High Q column (Bio-Rad, #732-0027). Bound proteins were eluted by a gradient of NaCl from 0 to 1 M in 50 mM Tris-HCl, pH 7.5, 1 mM DTT, 5% glycerol. Fractions containing high ACCβ enzyme activity were pooled and stored at −20° C.
Standard ACCβ enzyme assays, in a total volume of 100 μl, contained 50 mM HEPES-KOH, pH 7.5, 10 mM K-citrate, 10 mM MgSO4, 1 mM ATP, 0.1 mM DTT, 2% DMSO, 0.1 mg/ml fatty acid-free BSA, 0.2 mM acetyl-CoA, 2 mM KHCO3, 0.2 mM [^14C]NaHCO3 (50-60 mCi/mmol) and cell lysate or purified ACCβ enzyme. Reactions were incubated at 37° C. for 45 min. and stopped by the addition of 50 μl of 2 N HCl. Terminated reactions were incubated at 50° C. over night to evaporate non-incorporated [^14C]NaHCO3. [^14C]-labeled malonyl-CoA reaction product was quantitated by liquid scintillation counting after the addition of 20 μl of Microscint 20 (Canberra Packard, #6013621) on a TopCount NXT microplate scintillation counter (Canberra Packard).
Inhibition of ACCβ activity was determined at saturating substrate concentrations with two-fold serial dilutions of test compounds spanning a concentration range of at least two log units. IC50 values were calculated with the GraFit software (Erithacus Software Ltd.). Kinetic parameters (Km, Vmax and K0.5) were determined by varying one substrate (or allosteric effector) in a two-fold serial dilution over a concentration range of at least two log units while keeping all other substrates at constant saturating concentrations. Fitting to the Michaelis-Menten equation (for calculation of Km of substrates) and fitting to the Hill equation (for calculation of K0.5of the allosteric activator K-citrate) was done with the GraFit software. To determine the mode of action of Soraphens, determinations of Km for ATP and acetyl-CoA and of K0.5 for K-citrate were repeated in the absence and in the presence of the three different Soraphens at 0.5, 1 and 2 times their IC50 and the data were fitted to the equation for non-competitive inhibition with the GraFit software.

In assay [3] the test system is HepG2 cells. Nature of the assay: Fatty acid (palmitate) oxidation assay with human liver hepatoma cells HepG2. It counts as cell-based. As to conditions: for Stimulation of palmitate / fatty acid oxidation (in words): HepG2. As to the method: For routine passaging, HepG2 cells (American Type Culture Collection, ATCC) were grown in T75 flasks (Falcon, #353136) in 15 ml of Dulbecco's modified Eagle medium (DMEM, Sigma, #D5796), containing 10% heat inactivated fetal bovine serum (FBS, Summit Biotechnology, #S-100-05) and 1% Penicillin/Streptomycin (Sigma, #P4333). […] The cells were passaged once per week by trypsinization and an additional change of medium was done after 3 to 4 days after passaging.

For assay [4], the system named is differentiated L6 cells. Nature of the assay: Fatty acid (palmitate) oxidation assay with differentiated rat L6 muscle cells.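 Further: differentiated rat L6 myotubes fed [14C]-palmitate, with oxidation read as 14CO2 trapped on filters and counted by liquid scintillation after 3 to 8 h at 37 °C.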
Procedure: as §1, §2, §3

T1 sequence (O00763 whole entry): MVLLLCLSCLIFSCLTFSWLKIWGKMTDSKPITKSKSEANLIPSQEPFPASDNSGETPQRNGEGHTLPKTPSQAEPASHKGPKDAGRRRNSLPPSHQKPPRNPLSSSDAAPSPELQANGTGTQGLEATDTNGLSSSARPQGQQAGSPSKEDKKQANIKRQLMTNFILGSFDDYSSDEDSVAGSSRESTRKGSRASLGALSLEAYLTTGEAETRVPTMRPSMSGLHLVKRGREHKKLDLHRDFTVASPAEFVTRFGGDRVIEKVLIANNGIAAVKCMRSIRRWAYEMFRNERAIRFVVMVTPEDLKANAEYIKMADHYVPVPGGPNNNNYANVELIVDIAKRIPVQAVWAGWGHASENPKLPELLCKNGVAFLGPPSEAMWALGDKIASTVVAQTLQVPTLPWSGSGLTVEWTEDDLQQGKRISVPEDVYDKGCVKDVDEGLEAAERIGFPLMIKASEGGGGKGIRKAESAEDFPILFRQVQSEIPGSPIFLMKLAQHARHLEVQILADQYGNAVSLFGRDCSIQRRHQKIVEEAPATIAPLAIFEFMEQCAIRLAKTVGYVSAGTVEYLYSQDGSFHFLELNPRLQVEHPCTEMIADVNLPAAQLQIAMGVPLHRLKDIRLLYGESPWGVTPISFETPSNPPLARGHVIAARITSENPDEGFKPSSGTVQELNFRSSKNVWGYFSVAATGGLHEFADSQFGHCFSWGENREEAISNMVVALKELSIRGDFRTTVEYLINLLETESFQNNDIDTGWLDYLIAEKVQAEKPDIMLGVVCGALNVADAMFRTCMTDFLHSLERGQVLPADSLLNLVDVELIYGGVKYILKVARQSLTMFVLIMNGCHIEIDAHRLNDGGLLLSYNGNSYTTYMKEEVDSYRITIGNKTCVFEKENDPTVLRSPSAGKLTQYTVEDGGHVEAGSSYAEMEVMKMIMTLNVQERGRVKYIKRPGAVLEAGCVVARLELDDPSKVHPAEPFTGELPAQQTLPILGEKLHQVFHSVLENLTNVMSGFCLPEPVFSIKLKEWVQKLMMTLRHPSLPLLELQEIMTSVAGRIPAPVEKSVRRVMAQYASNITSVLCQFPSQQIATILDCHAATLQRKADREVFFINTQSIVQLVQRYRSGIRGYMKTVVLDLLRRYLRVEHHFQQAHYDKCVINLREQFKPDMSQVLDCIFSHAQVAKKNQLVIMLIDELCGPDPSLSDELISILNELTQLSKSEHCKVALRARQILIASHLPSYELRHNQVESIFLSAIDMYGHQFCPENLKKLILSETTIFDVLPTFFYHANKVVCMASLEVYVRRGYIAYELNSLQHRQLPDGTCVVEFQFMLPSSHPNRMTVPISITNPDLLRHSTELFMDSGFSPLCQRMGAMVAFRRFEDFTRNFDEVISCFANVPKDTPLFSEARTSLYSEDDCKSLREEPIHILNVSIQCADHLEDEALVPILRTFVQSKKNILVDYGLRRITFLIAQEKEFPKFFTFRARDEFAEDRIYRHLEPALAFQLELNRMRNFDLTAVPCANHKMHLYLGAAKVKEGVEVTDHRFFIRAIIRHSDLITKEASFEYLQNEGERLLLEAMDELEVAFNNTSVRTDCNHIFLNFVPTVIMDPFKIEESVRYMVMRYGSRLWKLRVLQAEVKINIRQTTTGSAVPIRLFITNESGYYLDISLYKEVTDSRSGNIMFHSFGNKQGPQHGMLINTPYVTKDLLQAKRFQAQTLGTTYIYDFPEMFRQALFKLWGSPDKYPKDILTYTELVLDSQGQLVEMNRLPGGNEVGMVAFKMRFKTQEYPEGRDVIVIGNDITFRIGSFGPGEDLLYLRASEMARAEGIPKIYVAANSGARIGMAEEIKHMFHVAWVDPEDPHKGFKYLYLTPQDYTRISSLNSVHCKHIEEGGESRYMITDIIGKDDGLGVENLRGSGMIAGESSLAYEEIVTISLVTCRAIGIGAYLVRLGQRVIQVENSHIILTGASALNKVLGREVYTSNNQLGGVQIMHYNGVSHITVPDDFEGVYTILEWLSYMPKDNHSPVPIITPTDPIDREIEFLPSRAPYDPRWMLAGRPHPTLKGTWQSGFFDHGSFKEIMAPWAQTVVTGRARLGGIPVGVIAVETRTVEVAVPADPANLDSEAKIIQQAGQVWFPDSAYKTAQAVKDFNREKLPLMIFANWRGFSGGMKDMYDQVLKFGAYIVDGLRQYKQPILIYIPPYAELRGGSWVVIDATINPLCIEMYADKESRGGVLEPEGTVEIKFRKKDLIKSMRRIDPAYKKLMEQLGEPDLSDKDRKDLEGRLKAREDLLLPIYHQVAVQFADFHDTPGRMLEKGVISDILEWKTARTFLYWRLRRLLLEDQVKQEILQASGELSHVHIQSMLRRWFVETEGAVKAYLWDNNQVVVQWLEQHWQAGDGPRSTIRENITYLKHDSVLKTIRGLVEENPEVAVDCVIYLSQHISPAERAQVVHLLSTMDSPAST

Regarding `CO[C@@H]1[C@@H](O)[C@H](C)[C@H]2OC1(O)[C@H](C)C(=O)O[C@H](c1ccccc1)CCCC[C@H](O)[C@H](O)/C=C/[C@@H]2C` [Cpd (Ib), Soraphen A 4-α], in assay [1] (L6, Table 2, 0.02 μM), the Fold stimulation was determined as 1.0 fold and the Palmitate oxidation rate is recorded as 8.8 +/− 0.3 pmol · h^−1 · well^−1. In addition, in assay [1] (L6, Table 2, 0.2 μM), the Fold stimulation is given as 1.1 fold and the Palmitate oxidation rate is reported as 10.0 +/− 1.4 pmol · h^−1 · well^−1. In addition, in assay [1] (L6, Table 2, 2 μM), the Fold stimulation was determined as 1.5 fold and the Palmitate oxidation rate is given as 13.5 +/− 1.4 pmol · h^−1 · well^−1. Also, in assay [2], the IC50 worked out at 200 nM, the “Effect on K0.5 of K-citrate” value is reported as “did not change” and the “Effect on Vmax of the ACC enzyme reaction” value is “dose-dependent decrease”. Also, in assay [3] (HepG2, 10 μM), the “Fold stimulation over palmitate oxidation rate in the absence of test compounds” value (“Fold stimulation … of test compounds” for short) was determined as 2.8 fold and the Palmitate oxidation rate is 10.8 +/− 0.4 pmol · h^−1 · well^−1.
With `CO[C@H]1CC(O)CC[C@@H](c2ccccc2)OC(=O)[C@@H](C)C2(O)O[C@H]([C@@H](C)[C@H](O)[C@H]2OC)[C@@H](C)/C=C/[C@H]1O` (stereo partly drawn) [Cpd (Ic), Soraphen B 2-α], in assay [4] (L6, Table 2, 0.02 μM), the Fold stimulation turned out to be 0.9 fold and the Palmitate oxidation rate was 8.2 +/− 0.5 pmol · h^−1 · well^−1. Moreover, in assay [4] (L6, Table 2, 0.2 μM), the Fold stimulation amounted to 1.0 fold and the Palmitate oxidation rate is 8.8 +/− 0.5 pmol · h^−1 · well^−1. In assay [4] (L6, Table 2, 2 μM), the Fold stimulation is 1.1 fold and the Palmitate oxidation rate was 10.2 +/− 1.3 pmol · h^−1 · well^−1. Also, in assay [2], the IC50 was 1750 nM, the “Effect on K0.5 of K-citrate” value is given as “did not change” and the “Effect on Vmax of the ACC enzyme reaction” value is on record as “dose-dependent decrease”. For the same compound, in assay [3] (HepG2, 10 μM), the “Fold stimulation … of test compounds” value turned out to be 1.6 fold and the Palmitate oxidation rate is recorded as 6.1 +/− 0.4 pmol · h^−1 · well^−1.
Take `CCCC(=NOCC)C1=C(O)CC(C2CCCSC2)CC1=O` (stereo not shown) [Cycloxidim, 2-(1-Ethoxyimino-butyl)-3-hydroxy-5-(tetrahydro-thiopyran-3-yl)-cyclohex-2-enone]: the “Stimulation of palmitate / fatty acid oxidation (in words)” value in assay [3] is “did not stimulate”. Further, in assay [3] (HepG2, 25 μM), the “Fold stimulation … of test compounds” value is listed as 0.9 fold and the Palmitate oxidation rate is 3.5 +/− 0.2 pmol · h^−1 · well^−1.
In the same order, the values of `CC(Oc1ccc(Oc2ccc(Cl)cc2Cl)cc1)C(=O)O` (stereo not shown) [Diclofop, 2-[p-(2,4-Dichlorophenoxy)phenoxy]propionic acid] are “did not stimulate”, 0.8 fold and 3.1 +/− 1.3 pmol · h^−1 · well^−1.
Take `CC(Oc1ccc(Oc2ncc(C(F)(F)F)cc2Cl)cc1)C(=O)O` (stereo not shown) [Haloxyfop, 2-[4-(3-chloro-5-trifluormethyl-2-pyridinyloxy)phenoxy] propionic acid]: the “Stimulation of palmitate / fatty acid oxidation (in words)” value in assay [3] is on record as “did not stimulate”. In assay [3] (HepG2, 25 μM), the “Fold stimulation … of test compounds” value was found to be 1.0 fold and the Palmitate oxidation rate is on record as 3.6 +/− 0.4 pmol · h^−1 · well^−1.
On to `CCCCCCCCCCCCCCOc1ccc(C(=O)O)o1` [TOFA, 5-(Tetradecyloxy)-2-furoic acid, reference compound], for which the Fold stimulation in assay [4] (L6, Table 3, 0.25 μM) is reported as 1.1 fold; in assay [4] (L6, Table 3, 2.5 μM), 1.5 fold; in assay [4] (L6, Table 3, 25 μM), 1.3 fold. In addition, the Palmitate oxidation rate was 5.8 +/− 0.4 pmol · h^−1 · well^−1 in assay [4] (L6, Table 3, 0.25 μM); 8.0 +/− 0.7 pmol · h^−1 · well^−1 in assay [4] (L6, Table 3, 2.5 μM); 7.2 +/− 0.3 pmol · h^−1 · well^−1 in assay [4] (L6, Table 3, 25 μM); 8.1 +/− 0.7 pmol · h^−1 · well^−1 in assay [3] (HepG2, 25 μM). The “Maximal stimulation of palmitate oxidation” value in assay [4] (differentiated L6 cells, up to 25 μM) turned out to be 1.5 fold. Also, the “Fold stimulation … of test compounds” value in assay [3] (HepG2, 25 μM) is reported as 2.1 fold.

The values are drawn from patent US20030144345A1, “Treatment of metabolic diseases with soraphen derivatives” (priority 2001, published 2003).
